Laboratory results: ChEMBL document CHEMBL2073825, “Ex vivo reversal of chemoresistance by tariquidar (XR9576)” (Anticancer Drugs, 2004)

Biological target: ATP-dependent translocase ABCB1 (Homo sapiens, UniProt P08183)
Assay: TP_TRANSPORTER: Vinorelbine-induced cytotoxicity in P-gp positive tumor
Type: functional, tissue-based, Neoplasm

ATP-dependent translocase ABCB1, sequence (P08183 whole entry): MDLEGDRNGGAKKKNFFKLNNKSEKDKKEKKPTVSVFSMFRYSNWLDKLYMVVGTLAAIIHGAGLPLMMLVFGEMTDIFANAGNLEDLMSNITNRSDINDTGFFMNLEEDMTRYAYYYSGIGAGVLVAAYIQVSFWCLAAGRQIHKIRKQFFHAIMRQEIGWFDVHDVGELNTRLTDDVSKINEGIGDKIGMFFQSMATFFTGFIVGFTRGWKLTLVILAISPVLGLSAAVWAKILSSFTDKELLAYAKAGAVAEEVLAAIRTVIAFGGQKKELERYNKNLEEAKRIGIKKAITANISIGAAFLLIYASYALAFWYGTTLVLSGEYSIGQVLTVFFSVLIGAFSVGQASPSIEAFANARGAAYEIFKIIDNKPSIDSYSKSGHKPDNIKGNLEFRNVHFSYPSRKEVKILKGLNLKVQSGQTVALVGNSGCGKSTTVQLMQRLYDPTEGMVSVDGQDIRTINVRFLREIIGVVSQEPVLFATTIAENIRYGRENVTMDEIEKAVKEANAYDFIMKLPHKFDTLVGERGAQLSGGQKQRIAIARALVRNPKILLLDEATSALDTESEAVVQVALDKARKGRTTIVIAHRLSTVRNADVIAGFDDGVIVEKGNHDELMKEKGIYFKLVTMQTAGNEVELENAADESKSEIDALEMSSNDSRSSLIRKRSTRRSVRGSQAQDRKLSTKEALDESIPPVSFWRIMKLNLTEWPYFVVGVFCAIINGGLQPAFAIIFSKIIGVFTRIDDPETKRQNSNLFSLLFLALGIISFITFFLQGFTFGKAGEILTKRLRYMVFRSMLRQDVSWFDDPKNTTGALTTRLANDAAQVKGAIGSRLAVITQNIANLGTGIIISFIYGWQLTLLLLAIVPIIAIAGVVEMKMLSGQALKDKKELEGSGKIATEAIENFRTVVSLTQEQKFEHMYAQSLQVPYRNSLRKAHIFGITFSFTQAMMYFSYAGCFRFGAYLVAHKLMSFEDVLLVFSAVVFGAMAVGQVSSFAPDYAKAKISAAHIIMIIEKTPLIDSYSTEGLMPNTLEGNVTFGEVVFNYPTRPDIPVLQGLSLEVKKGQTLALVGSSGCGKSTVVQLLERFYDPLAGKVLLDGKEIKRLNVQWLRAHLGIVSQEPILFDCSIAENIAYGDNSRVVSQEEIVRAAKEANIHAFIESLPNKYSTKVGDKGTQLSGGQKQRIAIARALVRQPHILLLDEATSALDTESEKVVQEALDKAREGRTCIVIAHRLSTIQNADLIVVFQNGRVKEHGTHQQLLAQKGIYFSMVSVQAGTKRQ

COc1cc2c(cc1OC)CN(CCc1ccc(NC(=O)c3cc(OC)c(OC)cc3NC(=O)c3cnc4ccccc4c3)cc1)CC2 [TARIQUIDAR]
Activity: inhibitor [+]
